What was measured:
[1] = target: CXCR4 (Homo sapiens, UniProt P61073); settings: cited from earlier work
[2] = test system: fibroblast growth and collagen synthesis; settings: cited from earlier work
[3] = test system: human malignant glioma cells; settings: cited from earlier work
[4] = test system: leiomyoma cell; settings: cultured cells; cited from earlier work
[5] = mouse, in vivo, po, 10 mg/kg
Method: The purpose of this single-dose PK study was to evaluate the in vivo drug release of Can-DPC in 4T1 tumor bearing animals by collecting whole blood, tumor, and liver tissue for bioanalytical quantification of polymer-conjugated and released drug (i.e., candesartan). In this example, the Can-DPC formulation (10 mg/kg) was administrated intravenously as a single bolus and compared directly with the PK profile of candesartan cilexetil administrated by oral gavage (10 mg/kg) using 0.5% HPMC as a vehicle (Table 5).
The mammary fat pads of Balb/C female mice (6-8 weeks old; Taconic) were implanted with syngeneic 4T1 mouse tumor cells (150,000 cells/per animal) obtained from ATCC. Tumors were allowed to develop for 10 days, reaching an average size of 150-450 mm^3 (caliper measurements), before the mice were randomized into three dose groups (Table 5). Following a single administration of the test agents (10 mg/kg) or vehicle alone, whole blood, tumor, and liver tissues were collected at 2, 24, 48 and 144 hrs post dose. In addition, intermediate submandibular bleeds (˜100 μL whole blood) were collected at 5 min, 30 min, 4 hrs, and 6 hrs (n=3 animals per timepoint) following the i.v. and p.o. dosing. […]

Chain of CXCR4 (P61073 whole entry, species assumed): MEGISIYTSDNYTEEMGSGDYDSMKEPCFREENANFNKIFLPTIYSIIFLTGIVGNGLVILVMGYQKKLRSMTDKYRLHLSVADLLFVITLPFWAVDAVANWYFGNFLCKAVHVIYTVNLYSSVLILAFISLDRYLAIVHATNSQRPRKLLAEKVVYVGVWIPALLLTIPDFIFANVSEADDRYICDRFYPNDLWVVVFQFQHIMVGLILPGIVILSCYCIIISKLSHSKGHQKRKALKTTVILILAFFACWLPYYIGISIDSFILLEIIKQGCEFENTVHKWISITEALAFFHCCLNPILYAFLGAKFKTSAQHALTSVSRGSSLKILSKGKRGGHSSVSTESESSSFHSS

c1cc(CN2CCCNCCNCCCNCC2)ccc1CN1CCCNCCNCCCNCC1 [AMD3100, 1,1′-[1,4-phenylene-bis(methylene)]-bis-1,4,8,11-tetraazacyclotetradecane]
fibrosis [1]: can reduce fibrosis

Cc1ccc(=O)n(-c2ccccc2)c1 [PFD, 5-methyl-1-phenyl-2(1H)-pyridone]
fibroblast growth and collagen synthesis [2]: inhibitory effect on fibroblast growth and collagen synthesis
TGF-b expression [3]: reduce TGF-b expression in human malignant glioma cells
leiomyoma cell proliferation and collagen production [4]: reduce leiomyoma cell proliferation and collagen production in cultured cells

CCOc1nc2cccc(C(=O)OC(C)OC(=O)OC3CCCCC3)c2n1Cc1ccc(-c2ccccc2-c2nn[nH]n2)cc1 (centres unmarked) [candesartan cilexetil]
candesartan in liver [5]: non-detectable
